Assay results reported in article PMC4754833, “Rilpivirine analogs potently inhibit drug-resistant HIV-1 mutants” (Retrovirology, 2016).

Legend:
WT HIV-1 = experiment: single round infection luciferase assay, WT HIV-1; assay type: cell-based; conditions: Human immunodeficiency virus 1
Procedure: (§1) The human osteosarcoma cell line, HOS, was obtained from Dr. Richard Schwartz (Michigan State University, East Lansing, MI) and grown in Dulbecco’s modified Eagle’s medium (Invitrogen, Carlsbad, CA) supplemented with 5 % (v/v) fetal bovine serum, 5 % newborn calf serum, and penicillin (50 units/ml) plus streptomycin (50 µg/ml; Quality Biological, Gaithersburg, MD). Virion production and single-round infectivity assays were used to determine antiviral activity (IC50 values) of the compounds as previously described.
(§2) pNLNgoMIVR-ΔEnv.LUC has been described previously. The RT open reading frame was removed from pNLNgoMIVR-ΔEnv.LUC (digestion with SpeI and SalI) and inserted between the SpeI and SalI sites of pBluescript II KS+. Using that construct as the wild-type template, we prepared the following HIV-1 RT mutants using the QuikChange II XL (Stratagene, La Jolla, CA) site-directed mutagenesis protocol kit: L100I, K103N, Y181C, Y188L, H221Y, K103N/Y181C, G190A, G190S, M230L, P236L, L100I/K103N, K103N/P225H, V106A/G190A/F227L, V106A, L234I, V106A/F227L, V106A/L234I, V106A/F227L/L234I, E40K, D67E, K101E, V111A, E138K, M184I, M184V, K101E/M184I, K101E/M184V, E138K/M184I, E138K/M184V, K101P, Y181I, and K101P/V179I. The following sense oligonucleotides were used with matching cognate antisense oligonucleotides (not shown) (Integrated DNA Technologies, Coralville, IA) in the mutagenesis: L100I, 5′-[…]-3′; L100I 2-103, 5′-[…]-3′; K103N, 5′-[…]-3′; Y181C, 5′-[…]-3′; Y188L, 5′-[…]-3′; H221Y, 5′-[…]-3′; G190A, 5′-[…]-3′; G190S, 5′-[…]-3′; P225H, 5′-[…]-3′; F227, 5′-[…]-3′; M230L, 5′-[…]-3′; P236L, 5′-[…]-3′; V106A, 5′-[…]-3′; L234I, 5′-[…]-3′; E40K, 5′-[…]-3′; D67E, 5′-[…]-3′; K101E, 5′-[…]-3′; V111A, 5′-[…]-3′; E138K, 5′-[…]-3′; M184I, 5′-[…]-3′; M184V, 5′-[…]-3′; K101P, 5′-[…]-3′; Y181I, 5′-[…]-3′; K101P/V179I, 5′-[…]-3′. The double mutants K103N/Y181C, K103N/P225H, and L100I/K103N were made using the previously generated K103N mutant and the appropriate oligonucleotides to add the second mutation, Y181C, P225, and L100I respectively. The double mutants V106A/F227L and V106A/L234I were prepared using the previously generated V106A mutant and the appropriate oligonucleotides to add the second mutation, F227L and L234I, respectively. The double mutants K101E/M184I and K101E/M184V were constructed using the previously generated K101E mutant and the appropriate oligonucleotides to add the second mutation, M184I and M184V, respectively. The double mutants E138K/M184I and E138K/M184V were constructed using the previously generated E138K mutant and the appropriate oligonucleotides for the second mutation, M184I and M184V, respectively. The triple mutant V106A/F227L/L234I was made using the previously generated V106A/F227L double mutant and the appropriate oligonucleotides for the third mutation, L234I. The triple mutant V106A/G190A/F227L was constructed in a series of steps using the previously generated V106A mutant and the appropriate oligonucleotides for the second mutation, G190A, to generate the double mutant V106A/G190A, and then the triple mutant was made using double mutant V106A/G190A and oligonucleotides for the third mutation, F227L. The DNA sequence of each construct was verified by DNA sequence determination. The sequences encoding the mutant RTs were then subcloned into pNLNgoMIVR-ΔEnv.LUC (between the KpnI and SalI sites) to produce the mutant HIV-1 constructs. These DNA sequences were also checked independently by DNA sequence determination.
(§3) 10.1186/s12977-016-0244-2 The IC50 values (nM) of RPV and the RPV analogs were determined against the NNRTI resistant mutants were measured by using a single round infection assay, n = 4. The concentrations (nM) are measured by reductions in luciferase reporter activity followed by the standard deviations. […]

HIV-1 RT mutant V106A = experiment: single round infection assay, V106A; assay type: cell-based; conditions: V106A vs WT
Procedure: as §1, §2, §3

HIV-1 RT mutant G190S = experiment: single round infection assay, G190S; assay type: cell-based; conditions: Human immunodeficiency virus 1
Procedure: as §1, §2, §3

[1] = system: HIV-1 RT mutant E138K/M184I; experiment: single round infection assay, E138K/M184I; assay type: cell-based; conditions: for fold-change of IC50 of the mutant relative to WT: E138K/M184I vs WT; for IC50: ± SD, n=4
Procedure: as §1, §2, §3

HIV-1 RT mutant Y181I = experiment: single round infection assay, Y181I; assay type: cell-based; conditions: for IC50: Human immunodeficiency virus 1; for fold-change of IC50 of the mutant relative to WT: Y181I vs WT
Procedure: as §1, §2, §3

HIV-1 RT mutant Y181C = system: HIV-1 RT mutant Y181C; set-up: method as in PMID 23217210; conditions: previous study; cited from earlier work
HIV-1 RT mutant D67E = experiment: single round infection assay, D67E; assay type: cell-based; conditions: for fold-change of IC50 of the mutant relative to WT: D67E vs WT; for IC50: ± SD, n=4
Procedure: as §1, §2, §3

[2] = system: HIV-1 RT mutant V106A/F227L; experiment: single round infection assay, V106A/F227L; assay type: cell-based; conditions: for fold-change of IC50 of the mutant relative to WT: V106A/F227L vs WT; for IC50: ± SD, n=4
Procedure: as §1, §2, §3

HIV-1 RT mutant H221Y = system: HIV-1 RT mutant H221Y; set-up: method as in PMID 23217210; conditions: previous study; cited from earlier work
[3] = system: HIV-1 RT mutant V106A/G190A/F227L; experiment: single round infection assay, V106A/G190A/F227L; assay type: cell-based; conditions: for IC50: Human immunodeficiency virus 1; for fold-change of IC50 of the mutant relative to WT: V106A/G190A/F227L vs WT
Procedure: as §1, §2, §3

HIV-1 RT mutant E40K = experiment: single round infection assay, E40K; assay type: cell-based; conditions: E40K vs WT
Procedure: as §1, §2, §3

HIV-1 RT mutant P236L = experiment: single round infection assay, P236L; assay type: cell-based; conditions: Human immunodeficiency virus 1
Procedure: as §1, §2, §3

[4] = system: HIV-1 RT mutant K101E/M184V; experiment: single round infection assay, K101E/M184V; assay type: cell-based; conditions: K101E/M184V vs WT
Procedure: as §1, §2, §3

[5] = system: HIV-1 RT mutant V106A/F227L/L234I; experiment: single round infection assay, V106A/F227L/L234I; assay type: cell-based; conditions: V106A/F227L/L234I vs WT
Procedure: as §1, §2, §3

[6] = Human immunodeficiency virus 1, D67E

Structure (SMILES) | IC50 (WT HIV-1) [nM] | IC50 (HIV-1 RT mutant G190S) [nM] | fold-change of IC50 of the mutant relative to WT [1] | IC50 (HIV-1 RT mutant Y181I) [nM] | fold-change of IC50 of the mutant relative to WT (HIV-1 RT mutant Y181I) | IC50 (HIV-1 RT mutant Y181C) [nM] | fold-change of IC50 of the mutant relative to WT (HIV-1 RT mutant D67E) | fold-change of IC50 of the mutant relative to WT [2] | IC50 (HIV-1 RT mutant H221Y) [nM] | IC50 [3] [nM] | fold-change of IC50 of the mutant relative to WT [3] | fold-change of IC50 of the mutant relative to WT (HIV-1 RT mutant E40K) | IC50 (HIV-1 RT mutant P236L) [nM] | IC50 (HIV-1 RT mutant D67E; [6]) [nM] | fold-change of IC50 of the mutant relative to WT [5] | further results
Cc1cc(/C=C/C#N)cc(C)c1Nc1ccnc(Nc2ccc(C#N)cc2)n1 [RPV, rilpivirine] | 0.24 ± 0.1 | 0.11 ± 0.01 | 5 | 8.8 | 37 | < 7 | 3 | 3 | < 7 | 0.5 ± 0.02 | 2 | < 2 | 0.2 |  |  | fold-change of IC50 of the mutant relative to WT (HIV-1 RT mutant V106A): < 2
Cc1cc(/C=C/C#N)cc(C)c1Nc1nc(Nc2ccc(C#N)cc2)ncc1[N+](=O)[O-] [compound 6] | 0.5 ± 0.17 | 0.2 ± 0.09 | 2 | 55.3 | 110 | < 7 | 3 | 4 | < 7 | 1.1 ± 0.2 | 2 | 2 | 0.23 ± 0.06 | < 2.5 | 2 | fold-change of IC50 of the mutant relative to WT [4]: 2; IC50 (HIV-1 RT mutant D67E; D67E): 1.7 ± 0.14 nM
Cc1cc(/C=C/C#N)cc(C)c1Nc1nc(Nc2ccc(C#N)cc2)ncc1N [compound 7] | 0.78 ± 0.2 | 0.4 ± 0.07 | 4 | 19 | 24 | < 7 | 6 | < 2 | < 7 | 1.4 ± 0.4 | < 2 |  | 0.22 ± 0.06 | 4.5 ± 1.1 |  | IC50 ([1]; E138K/M184I): 2.9 ± 0.6 nM; IC50 ([1]; Human immunodeficiency virus 1, E138K/M184I): < 2.5 nM
Cc1cc(/C=C/C#N)cc(C)c1Nc1ncc([N+](=O)[O-])c(Nc2ccc(C#N)cc2)n1 [compound 8] | 1.6 ± 0.2 | 0.17 ± 0.02 | < 2 | 74.8 | 47 | < 7 | 8 | 4 | < 7 | 2.8 ± 0.42 | < 2 |  | 0.61 ± 0.07 | 12.7 | < 2 | IC50 ([2]; Human immunodeficiency virus 1, V106A/F227L (selected by DOR)): < 5 nM; IC50 ([2]; V106A/F227L (selected by DOR)): 6.3 ± 2 nM
